Measured values as given in patent US20160316790A1, “BETA-HINOKITIOL DERIVATIVES AND APPLICATIONS THEREOF IN PREPARATION OF ANIMAL ANTIBACTERIAL AGENTS AND ANTIBACTERIAL GROWTH PROMOTERS USED IN FEED” (GUANGZHOU INSIGHTER BIOTECHNOLOGY CO., LTD., priority 2013, published 2016).
≈ marks a conversion by molar mass, not a printed value. Where “and” joins values, the source holds several entries; their conditions need not be identical. Identical values can stand only once. Like-named read-outs stand apart in the source and are kept apart here.

Assays:
[1] = Effect of β-hinokitiol derivatives on diarrhea of weaned pigs; format: in vivo
Excerpt: 80 25-day-old weaned pigs were randomly divided into eight groups according to table 7, 10 pigs in each group. […] During the testing, the pigs ate food and drank water freely with temperature preservation. The test lasted for 10 days.

riemerella anatipestifer [2] = experiment: Minimum inhibitory concentration in vitro, doubling dilutions; format: cell-based
vibrio = experiment: as above; format: cell-based
haemophilus parasuis = experiment: as above; format: cell-based; conditions: Glaesserella parasuis
salmonellas = experiment: as above; format: cell-based
streptococcus = experiment: as above; format: cell-based
escherichia coli = experiment: as above; format: cell-based
clostridium perfringens = experiment: microbe, parasite or virus in culture; format: cell-based
staphylococcus aureus = experiment: Minimum inhibitory concentration in vitro, doubling dilutions; format: cell-based
[3] = tested on: major animal pathogenic bacteria; experiment: In vitro antibacterial activity (MICs), overall statement; format: cell-based; conditions: Tables 1 to 4
riemerella anatipestifer [4] = experiment: Protection effect against attacking and infection of riemerella anatipestifer; conditions: ducks, 5 × 10^7 CFU/bird, 7 days
[5] = Application effect test of β-hinokitiol derivatives in broiler feeds; format: in vivo, fast-grown type yellow feather broilers; conditions: 14 days; for Average daily weight gain / Average weight gain / Total consumption / feed conversion efficiency: broilers
Excerpt: 598 fast-grown type yellow feather broilers (female) aged 30-days were divided into five groups according to table 5. […] During the test, the broilers ate food and drank water freely. The test lasted for 14 days. […] [table]

[6] = read-out: Minimum inhibitory concentration (MIC), Riemerella anatipestifer SCAU03
[7] = strain WS, read-out: Minimum inhibitory concentration (MIC), Riemerella anatipestifer WS
[8] = read-out: Minimum inhibitory concentration (MIC), Vibrio VP3
[9] = read-out: Minimum inhibitory concentration (MIC), Vibrio VP5
[10] = strain 2-3A, read-out: Minimum inhibitory concentration (MIC), Haemophilus parasuis 2-3A
[11] = strain FS1303B, read-out: Minimum inhibitory concentration (MIC), Salmonellas FS1303B
[12] = strain GD1303-3, read-out: Minimum inhibitory concentration (MIC), Salmonellas GD1303-3
[13] = strain KP1307-1, read-out: Minimum inhibitory concentration (MIC), Streptococcus KP1307-1
[14] = strain TS1205-2, read-out: Minimum inhibitory concentration (MIC), Streptococcus TS1205-2
[15] = read-out: Minimum inhibitory concentration (MIC), Eserichia coli HZ1308-1
[16] = read-out: Minimum inhibitory concentration (MIC), Eserichia coli SS1107A
[17] = read-out: Minimum inhibitory concentration (MIC), Clostridium JM1210B
[18] = read-out: Minimum inhibitory concentration (MIC), Clostridium JM1212A
[19] = weaned pigs, 30 ppm in diet, 10 days
[20] = read-out: Minimum inhibitory concentration (MIC), Riemerella anatipestifer WS
[21] = strain SCAU03, read-out: Minimum inhibitory concentration (MIC), Riemerella anatipestifer SCAU03
[22] = read-out: Minimum inhibitory concentration (MIC), Haemophilus parasuis 2-3A
[23] = read-out: Minimum inhibitory concentration (MIC), Haemophilus parasuis S5A
[24] = read-out: Minimum inhibitory concentration (MIC), Staphylococcus aureus PNB14
[25] = read-out: Minimum inhibitory concentration (MIC), Staphylococcus aureus SA10
[26] = read-out: Minimum inhibitory concentration (MIC), Streptococcus KP1307-1

Compound	MIC (riemerella anatipestifer [2]; [6]) [mg/L]	MIC (riemerella anatipestifer [2]; [7]) [mg/L]	MIC (vibrio; [8]) [mg/L]	MIC (vibrio; [9]) [mg/L]	MIC (haemophilus parasuis; [10]) [mg/L]	MIC (salmonellas; [11]) [mg/L]	MIC (salmonellas; [12]) [mg/L]	MIC (streptococcus; [13]) [mg/L]	MIC (streptococcus; [14]) [mg/L]	MIC (escherichia coli; [15]) [mg/L]	MIC (escherichia coli; [16]) [mg/L]	MIC (clostridium perfringens; [17]) [mg/L]	MIC (clostridium perfringens; [18]) [mg/L]	MIC (haemophilus parasuis; [23]) [mg/L]	also measured
Colistin sulfate [reference compound]															Average daily diarrhea rate ([1]; weaned pigs, 60 ppm in diet, 10 days): 30% and 33%
CCC(C)c1cccc(=O)c(O)c1 (stereo not shown) [IST_009_008, 4-(sec-butyl)-2-hydroxycyclohepta-2,4,6-trienone]	12.5 (≈ 70.1 µM)	6.25 (≈ 35.1 µM)	50 (≈ 281 µM)	25 (≈ 140 µM)	0.39 (≈ 2.19 µM)	25 (≈ 140 µM)	25 (≈ 140 µM)	50 (≈ 281 µM)	50 (≈ 281 µM)	25 (≈ 140 µM)	25 (≈ 140 µM)	12.5 (≈ 70.1 µM)	12.5 (≈ 70.1 µM)		
CC(C)c1cccc(=O)c(O)c1 [IST_001_002, 2-hydroxy-4-isopropyl-1-cycloheptatrienone, reference compound]			25 (≈ 152 µM)	25 (≈ 152 µM)	0.78 (≈ 4.75 µM)	25 (≈ 152 µM)	25 (≈ 152 µM)	50 (≈ 304 µM)	50 (≈ 304 µM)	25 (≈ 152 µM)	25 (≈ 152 µM)	6.25 (≈ 38.1 µM)	12.5 (≈ 76.1 µM)		Average daily diarrhea rate [1, 19]: 35% and 32%; MIC (riemerella anatipestifer [2]; [20]): 6.25 mg/L (≈ 38.1 µM); MIC (riemerella anatipestifer [2]; [21]): 25 mg/L (≈ 152 µM); MIC (staphylococcus aureus; strain PNB14, read-out: Minimum inhibitory concentration (MIC), Staphylococcus aureus PNB14): 25 mg/L (≈ 152 µM); MIC (staphylococcus aureus; strain SA10, read-out: Minimum inhibitory concentration (MIC), Staphylococcus aureus SA10): 25 mg/L (≈ 152 µM)
O=c1cccc(CCCF)cc1O [IST_009_031, 4-(3-fluoropropyl)-2-hydroxycyclohepta-2,4,6-trienone]						50 (≈ 274 µM)	50 (≈ 274 µM)			25 (≈ 137 µM)	100 (≈ 549 µM)	6.25 (≈ 34.3 µM)	6.25 (≈ 34.3 µM)	3.13 (≈ 17.2 µM)	MIC (haemophilus parasuis; [22]): 6.25 mg/L (≈ 34.3 µM)
CCCc1cccc(=O)c(O)c1 [IST_009_001, 2-hydroxy-4-propylcyclohepta-2,4,6-trienone]	12.5 (≈ 76.1 µM)		12.5 (≈ 76.1 µM)	6.25 (≈ 38.1 µM)	0.39 (≈ 2.38 µM)	6.25 (≈ 38.1 µM)	12.5 (≈ 76.1 µM)	25 (≈ 152 µM)	25 (≈ 152 µM)	12.5 (≈ 76.1 µM)	12.5 (≈ 76.1 µM)	3.13 (≈ 19.1 µM)	3.13 (≈ 19.1 µM)	0.2 (≈ 1.22 µM)	effect on diarrhea compared with colistin sulfate or IST_001_002 groups (in words) ([1]; 30 ppm test group): obviously better than that of colistin sulfate or IST_001_002 groups; Average daily diarrhea rate [1, 19]: 16% and 17%; diarrhea rate of the tested pigs (in words) ([1]; weaned pigs, added in feeds, 10 days): could obviously reduce the diarrhea rate; MIC (riemerella anatipestifer [2]; [20]): 3.13 mg/L (≈ 19.1 µM); antibacterial activities compared with the lead compound IST_001_002 (in words) [3]: better than those of the lead compound IST_001_002; Death rate (riemerella anatipestifer [4]; 10 mg/kg weight intramuscular): 0%; Morbidity (riemerella anatipestifer [4]; 10 mg/kg weight intramuscular): 40%; Death rate (riemerella anatipestifer [4]; 20 mg/kg weight intramuscular): 0%; Morbidity (riemerella anatipestifer [4]; 20 mg/kg weight intramuscular): 25%; MIC (staphylococcus aureus; [24]): 12.5 mg/L (≈ 76.1 µM); MIC (staphylococcus aureus; [25]): 12.5 mg/L (≈ 76.1 µM); Average daily weight gain ([5]; 5 ppm mixed with feed): 37.75 g/d * bird and 36.93 g/d * bird and 33.52 g/d * bird; Average weight gain ([5]; 5 ppm mixed with feed): 516.79 g and 520.00 g and 547.21 g; Total consumption ([5]; 5 ppm mixed with feed): 61 kg and 58.85 kg and 55.12 kg; feed conversion efficiency ([5]; 5 ppm mixed with feed): 2.886 and 2.846 and 2.808; Average daily weight gain ([5]; 15 ppm mixed with feed): 36.94 g/d * bird and 37.5 g/d * bird and 34.53 g/d * bird; Average weight gain ([5]; 15 ppm mixed with feed): 517.17 g and 525.50 g and 523.38 g; Total consumption ([5]; 15 ppm mixed with feed): 58.03 kg and 57.61 kg and 57.84 kg; feed conversion efficiency ([5]; 15 ppm mixed with feed): 2.807 and 2.741 and 2.889; weight gain and feed conversion efficiency of the experimental broilers (in words) [5]: could enhance the weight gain and the feed conversion efficiency
CCCCc1cccc(=O)c(O)c1 [IST_009_019, 4-butyl-2-hydroxycyclohepta-2,4,6-trienone]			50 (≈ 281 µM)	50 (≈ 281 µM)	0.39 (≈ 2.19 µM)	25 (≈ 140 µM)	25 (≈ 140 µM)	> 100	25 (≈ 140 µM)	25 (≈ 140 µM)	25 (≈ 140 µM)	12.5 (≈ 70.1 µM)	6.25 (≈ 35.1 µM)	0.2 (≈ 1.12 µM)	
CCCCCc1cccc(=O)c(O)c1 [IST_009_003, 2-hydroxy-4-pentylcyclohepta-2,4,6-trienone]	12.5 (≈ 65 µM)	3.13 (≈ 16.3 µM)	50 (≈ 260 µM)	25 (≈ 130 µM)	0.2 (≈ 1.04 µM)	6.25 (≈ 32.5 µM)	12.5 (≈ 65 µM)			6.25 (≈ 32.5 µM)	12.5 (≈ 65 µM)	6.25 (≈ 32.5 µM)	6.25 (≈ 32.5 µM)		antibacterial activities compared with the lead compound IST_001_002 (in words) [3]: better than those of the lead compound IST_001_002; MIC (streptococcus; [26]): 12.5 mg/L (≈ 65 µM); MIC (streptococcus; read-out: Minimum inhibitory concentration (MIC), Streptococcus TS1205-2): 12.5 mg/L (≈ 65 µM); Average daily weight gain ([5]; 40 ppm mixed with feed): 36.21 g/d * bird and 34.19 g/d * bird and 37.14 g/d * bird; Average weight gain ([5]; 40 ppm mixed with feed): 502.05 g and 449.90 g and 534.50 g; Total consumption ([5]; 40 ppm mixed with feed): 58.05 kg and 57.71 kg and 58.17 kg; feed conversion efficiency ([5]; 40 ppm mixed with feed): 2.862 and 2.952 and 2.868; weight gain and feed conversion efficiency of the experimental broilers (in words) [5]: could enhance the weight gain and the feed conversion efficiency
O=c1cccc(Cc2ccc(F)cc2)cc1O [IST_009_028, 4-(4-fluorobenzyl)-2-hydroxycyclohepta-2,4,6-trienone]			100 (≈ 434 µM)	100 (≈ 434 µM)				25 (≈ 109 µM)	25 (≈ 109 µM)						
CCCCCCCCc1cccc(=O)c(O)c1 [IST_009_030, 2-hydroxy-4-octylcyclohepta-2,4,6-trienone]	12.5 (≈ 53.3 µM)	3.13 (≈ 13.4 µM)	> 100	> 100	6.25 (≈ 26.7 µM)	25 (≈ 107 µM)	> 100	25 (≈ 107 µM)	25 (≈ 107 µM)	25 (≈ 107 µM)	> 100	25 (≈ 107 µM)	12.5 (≈ 53.3 µM)	0.39 (≈ 1.66 µM)	MIC (staphylococcus aureus; [24]): 12.5 mg/L (≈ 53.3 µM); MIC (staphylococcus aureus; [25]): 12.5 mg/L (≈ 53.3 µM)
CO/N=C(\C(=O)N[C@@H]1C(=O)N2C(C(=O)O)=C(COC(C)=O)CS[C@H]12)c1csc(N)n1 [Cefotaxime, reference compound]															Death rate (riemerella anatipestifer [4]; 10 mg/kg weight intramuscular): 0%; Morbidity (riemerella anatipestifer [4]; 10 mg/kg weight intramuscular): 25%
O=c1cccc(Cc2ccccc2)cc1O [IST_009_004, 4-benzyl-2-hydroxycyclohepta-2,4,6-trienone]	12.5 (≈ 58.9 µM)	6.25 (≈ 29.4 µM)	50 (≈ 236 µM)	50 (≈ 236 µM)	0.78 (≈ 3.67 µM)	25 (≈ 118 µM)	25 (≈ 118 µM)	6.25 (≈ 29.4 µM)	50 (≈ 236 µM)	12.5 (≈ 58.9 µM)	25 (≈ 118 µM)	12.5 (≈ 58.9 µM)	12.5 (≈ 58.9 µM)	0.2 (≈ 0.942 µM)	
CCCCCCCCCCCCCCc1cccc(=O)c(O)c1 [IST_009_033, 2-hydroxy-4-tetradecylcyclohepta-2,4,6-trienone]		25 (≈ 78.5 µM)	> 100	> 100	50 (≈ 157 µM)	> 100	> 100	> 100	> 100	> 100	> 100	50 (≈ 157 µM)	50 (≈ 157 µM)		MIC (riemerella anatipestifer [2]; [21]): 100 mg/L (≈ 314 µM)
CCc1cccc(=O)c(O)c1 [IST_009_018, 4-ethyl-2-hydroxycyclohepta-2,4,6-trienone]	12.5 (≈ 83.2 µM)	6.25 (≈ 41.6 µM)	25 (≈ 166 µM)	25 (≈ 166 µM)		12.5 (≈ 83.2 µM)	25 (≈ 166 µM)		> 100	25 (≈ 166 µM)	50 (≈ 333 µM)	3.13 (≈ 20.8 µM)	3.13 (≈ 20.8 µM)	1.56 (≈ 10.4 µM)	MIC (haemophilus parasuis; [22]): 3.13 mg/L (≈ 20.8 µM); MIC (streptococcus; [26]): 12.5 mg/L (≈ 83.2 µM)
O=c1cccc(Cc2ccc(Cl)cc2)cc1O [IST_009_025, 4-(4-chlorobenzyl)-2-hydroxycyclohepta-2,4,6-trienone]			> 100	> 100				25 (≈ 101 µM)	25 (≈ 101 µM)						
